How the values were obtained:
[1] = system: HIV-1; details: monotherapy in naïve patients (Louie et al.); cited from earlier work
[2] = system: HIV; test: microbe, parasite or virus in culture; assay type: cell-based
[3] = system: HIV-1IIIB; test: Two-drug combination antiviral assay in CEM cells (CPE), MacSynergy II; assay type: cell-based; details: in combination with CMX157, CEM-SS cells, 95% confidence

CC(C)OC(=O)OCOP(=O)(CO[C@H](C)Cn1cnc2c(N)ncnc21)OCOC(=O)OC(C)C.O=C(O)/C=C/C(=O)O [TDF, 2,4,6,8-Tetraoxa-5-phosphanonanedioic acid, 5-[[(1R)-2-(6-amino-9H-purin-9-yl)-1-methylethoxy]methyl]-, bis(1-methylethyl) ester, 5-oxide, (2E)-2-butenedioate (1:1)]
viral load response [1]: −1.5 log

Cc1cn([C@H]2C=C[C@@H](CO)O2)c(=O)[nH]c1=O [d4T, 2′,3′-didehydro-3′-deoxythymidine]
IC50 ([2]; Human immunodeficiency virus 1, PANEL 1, WT): 510 nM | IC50 ([2]; Human immunodeficiency virus 1, PANEL 2, WT): 480 nM | IC50 ([2]; Human immunodeficiency virus 1, PANEL 3, 6 TAMs, no 184): 2170 nM | IC50 ([2]; Human immunodeficiency virus 1, PANEL 6, 6 TAMs + 184): 1350 nM | IC50 ([2]; Human immunodeficiency virus 1, PANEL 7, 184V): 460 nM | IC50 ([2]; Human immunodeficiency virus 1, PANEL 9, 69ins, no 184): 6390 nM | IC50 ([2]; Human immunodeficiency virus 1, PANEL 12, 69ins + 184): 6790 nM | IC50 ([2]; Human immunodeficiency virus 1, PANEL 14, 65R, no 184): 770 nM | IC50 ([2]; Human immunodeficiency virus 1, PANEL 15, 65R + 184V): 590 nM | IC50 ([2]; Human immunodeficiency virus 1, PANEL 17, L74V): 600 nM | IC50 ([2]; Human immunodeficiency virus 1, PANEL 19, L74V + M184V): 420 nM | IC50 ([2]; Human immunodeficiency virus 1, PANEL 26, 151M, no 184): 5540 nM | IC50 ([2]; Human immunodeficiency virus 1, PANEL 28, 151M + 184): 4220 nM | IC50 ([2]; Human immunodeficiency virus 1, PANEL 29, L74V − SDM): 630 nM | IC50 ([2]; Human immunodeficiency virus 1, PANEL 30, M184V − SDM): 400 nM | IC50 ([2]; Human immunodeficiency virus 1, PANEL 31, K65R − SDM): 830 nM | IC50 ([2]; Human immunodeficiency virus 1, PANEL 33, T215Y): 830 nM | IC50 ([2]; Human immunodeficiency virus 1, PANEL 34, T215Y + M184V): 650 nM | IC50 ([2]; Human immunodeficiency virus 1, PANEL 35, M41L + T215Y): 840 nM | IC50 ([2]; Human immunodeficiency virus 1, PANEL 37, M41L + T215Y + M184V): 860 nM | IC50 ([2]; Human immunodeficiency virus 1, PANEL 38, M41L + L210W + T215Y): 1220 nM | IC50 ([2]; Human immunodeficiency virus 1, PANEL 39, M41L + L210W + T215Y): 1090 nM | IC50 ([2]; Human immunodeficiency virus 1, PANEL 40, M41L + L210W + T215Y + M184V): 880 nM | IC50 ([2]; Human immunodeficiency virus 1, PANEL 41, M41L + L210W + T215Y + M184V): 1050 nM | IC50 ([2]; Human immunodeficiency virus 1, PANEL 42, D67N + K70R): 780 nM | IC50 ([2]; Human immunodeficiency virus 1, PANEL 44, D67N + K70R + T215F + K219E + M184V): 790 nM | IC50 ([2]; Human immunodeficiency virus 1, PANEL 45, L210W + T215Y): 940 nM | IC50 ([2]; Human immunodeficiency virus 1, PANEL 46, D67N + K70E): 560 nM | IC50 ([2]; Human immunodeficiency virus 1, PANEL 47, D67N + K70E + M184V): 420 nM | IC50 ([2]; Human immunodeficiency virus 1, PANEL 48, K70E + M184V): 390 nM | IC50 Fold Change ([2]; PANEL 1, WT): 0.86 | IC50 Fold Change ([2]; PANEL 2, WT): 0.81 | IC50 Fold Change ([2]; PANEL 3, 6 TAMs, no 184): 3.66 | IC50 Fold Change ([2]; PANEL 6, 6 TAMs + 184): 2.28 | IC50 Fold Change ([2]; PANEL 7, 184V): 0.77 | IC50 Fold Change ([2]; PANEL 9, 69ins, no 184): 11.00 | IC50 Fold Change ([2]; PANEL 12, 69ins + 184): 11.00 | IC50 Fold Change ([2]; PANEL 14, 65R, no 184): 1.30 | IC50 Fold Change ([2]; PANEL 15, 65R + 184V): 0.99 | IC50 Fold Change ([2]; PANEL 17, L74V): 1.01 | IC50 Fold Change ([2]; PANEL 19, L74V + M184V): 0.71 | IC50 Fold Change ([2]; PANEL 26, 151M, no 184): 9.33 | IC50 Fold Change ([2]; PANEL 28, 151M + 184): 7.10 | IC50 Fold Change ([2]; PANEL 29, L74V − SDM): 1.07 | IC50 Fold Change ([2]; PANEL 30, M184V − SDM): 0.68 | IC50 Fold Change ([2]; PANEL 31, K65R − SDM): 1.40 | IC50 Fold Change ([2]; PANEL 33, T215Y): 1.40 | IC50 Fold Change ([2]; PANEL 34, T215Y + M184V): 1.10 | IC50 Fold Change ([2]; PANEL 35, M41L + T215Y): 1.41 | IC50 Fold Change ([2]; PANEL 37, M41L + T215Y + M184V): 1.46 | IC50 Fold Change ([2]; PANEL 38, M41L + L210W + T215Y): 2.06 | IC50 Fold Change ([2]; PANEL 39, M41L + L210W + T215Y): 1.84 | IC50 Fold Change ([2]; PANEL 40, M41L + L210W + T215Y + M184V): 1.48 | IC50 Fold Change ([2]; PANEL 41, M41L + L210W + T215Y + M184V): 1.77 | IC50 Fold Change ([2]; PANEL 42, D67N + K70R): 1.31 | IC50 Fold Change ([2]; PANEL 44, D67N + K70R + T215F + K219E + M184V): 1.32 | IC50 Fold Change ([2]; PANEL 45, L210W + T215Y): 1.58 | IC50 Fold Change ([2]; PANEL 46, D67N + K70E): 0.94 | IC50 Fold Change ([2]; PANEL 47, D67N + K70E + M184V): 0.70 | IC50 Fold Change ([2]; PANEL 48, K70E + M184V): 0.65 | Antagonism Volume, Result 1 [3]: 0 nM^2 %, μM^2 % or nMμM % | Antagonism Volume, Result 2 [3]: 0 nM^2 %, μM^2 % or nMμM % | Antagonism Volume, Result 3 [3]: −1.83 nM^2 %, μM^2 % or nMμM % | Mean Antagonism Volume (n = 3) [3]: −0.61 nM^2 %, μM^2 % or nMμM % | Mean Synergy Volume (n = 3) [3]: 15.2 nM^2 %, μM^2 % or nMμM % | Synergy Volume, Result 1 [3]: 4.47 nM^2 %, μM^2 % or nMμM % | Synergy Volume, Result 2 [3]: 40.6 nM^2 %, μM^2 % or nMμM % | Synergy Volume, Result 3 [3]: 0.39 nM^2 %, μM^2 % or nMμM %

— patent publication US8993542B2, “Methods of treating viral infections” (priority 2008, dated 2015)
